Drawing on patent publication US9708333B2, “Fused bicyclic 1,2,4-triazine compounds as TAM inhibitors” (Incyte Corporation, priority 2015, dated 2017), this text covers IC50 for seven compounds.

One assay has as its target phosphor-Axl (Homo sapiens (Human), UniProt P30530). Put plainly: TAM Enzymatic Assay (HTRF), phosphor-Axl. Format: biochemical. Conditions: 5.1 nM autophosphorylated Axl, 60 min; read-out: Phos-Axl IC50.
Another assay addresses Tyro3 (Homo sapiens (Human), UniProt Q06418). Kind of assay: TAM Enzymatic Assay (HTRF), Tyro3. Conditions: 0.366 nM Tyro3, 60 min. Format: biochemical.
The next assay concerns the target PI3Kδ (Homo sapiens (Human), UniProt O00329). As to conditions: cited from earlier work.
The target in the next assay is c-Mer (Homo sapiens (Human), UniProt Q12866). Kind of assay: TAM Enzymatic Assay (HTRF), c-Mer. The format is biochemical. Conditions: 0.0625 nM c-Mer, ATP-containing substrate solution, 60 min.
c-Mer, sequence (Q12866 21-999): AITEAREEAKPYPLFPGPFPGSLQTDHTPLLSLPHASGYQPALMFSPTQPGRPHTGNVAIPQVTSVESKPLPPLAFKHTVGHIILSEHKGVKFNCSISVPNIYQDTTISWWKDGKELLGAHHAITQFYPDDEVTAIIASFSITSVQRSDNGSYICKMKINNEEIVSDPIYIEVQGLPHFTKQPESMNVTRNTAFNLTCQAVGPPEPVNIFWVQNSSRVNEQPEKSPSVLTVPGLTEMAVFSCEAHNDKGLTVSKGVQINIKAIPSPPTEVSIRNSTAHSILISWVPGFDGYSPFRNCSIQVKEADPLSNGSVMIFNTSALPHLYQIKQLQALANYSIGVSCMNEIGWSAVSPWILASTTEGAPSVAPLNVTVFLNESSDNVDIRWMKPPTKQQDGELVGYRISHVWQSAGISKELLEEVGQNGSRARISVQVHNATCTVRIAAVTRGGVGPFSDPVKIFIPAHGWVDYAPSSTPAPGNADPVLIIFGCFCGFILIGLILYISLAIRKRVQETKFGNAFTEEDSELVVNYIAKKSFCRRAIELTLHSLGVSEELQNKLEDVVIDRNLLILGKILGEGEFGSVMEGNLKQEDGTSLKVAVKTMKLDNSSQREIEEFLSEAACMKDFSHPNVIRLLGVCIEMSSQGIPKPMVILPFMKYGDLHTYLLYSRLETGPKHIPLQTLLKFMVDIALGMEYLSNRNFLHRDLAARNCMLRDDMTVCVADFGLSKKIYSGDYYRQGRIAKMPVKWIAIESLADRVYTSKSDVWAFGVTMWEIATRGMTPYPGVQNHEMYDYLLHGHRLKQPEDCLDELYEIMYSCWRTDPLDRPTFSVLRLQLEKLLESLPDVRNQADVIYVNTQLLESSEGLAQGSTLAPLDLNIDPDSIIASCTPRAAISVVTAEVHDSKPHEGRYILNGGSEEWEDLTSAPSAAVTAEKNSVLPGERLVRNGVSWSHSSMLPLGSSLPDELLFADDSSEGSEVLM

PI3Kδ, sequence (O00329 whole entry, species assumed): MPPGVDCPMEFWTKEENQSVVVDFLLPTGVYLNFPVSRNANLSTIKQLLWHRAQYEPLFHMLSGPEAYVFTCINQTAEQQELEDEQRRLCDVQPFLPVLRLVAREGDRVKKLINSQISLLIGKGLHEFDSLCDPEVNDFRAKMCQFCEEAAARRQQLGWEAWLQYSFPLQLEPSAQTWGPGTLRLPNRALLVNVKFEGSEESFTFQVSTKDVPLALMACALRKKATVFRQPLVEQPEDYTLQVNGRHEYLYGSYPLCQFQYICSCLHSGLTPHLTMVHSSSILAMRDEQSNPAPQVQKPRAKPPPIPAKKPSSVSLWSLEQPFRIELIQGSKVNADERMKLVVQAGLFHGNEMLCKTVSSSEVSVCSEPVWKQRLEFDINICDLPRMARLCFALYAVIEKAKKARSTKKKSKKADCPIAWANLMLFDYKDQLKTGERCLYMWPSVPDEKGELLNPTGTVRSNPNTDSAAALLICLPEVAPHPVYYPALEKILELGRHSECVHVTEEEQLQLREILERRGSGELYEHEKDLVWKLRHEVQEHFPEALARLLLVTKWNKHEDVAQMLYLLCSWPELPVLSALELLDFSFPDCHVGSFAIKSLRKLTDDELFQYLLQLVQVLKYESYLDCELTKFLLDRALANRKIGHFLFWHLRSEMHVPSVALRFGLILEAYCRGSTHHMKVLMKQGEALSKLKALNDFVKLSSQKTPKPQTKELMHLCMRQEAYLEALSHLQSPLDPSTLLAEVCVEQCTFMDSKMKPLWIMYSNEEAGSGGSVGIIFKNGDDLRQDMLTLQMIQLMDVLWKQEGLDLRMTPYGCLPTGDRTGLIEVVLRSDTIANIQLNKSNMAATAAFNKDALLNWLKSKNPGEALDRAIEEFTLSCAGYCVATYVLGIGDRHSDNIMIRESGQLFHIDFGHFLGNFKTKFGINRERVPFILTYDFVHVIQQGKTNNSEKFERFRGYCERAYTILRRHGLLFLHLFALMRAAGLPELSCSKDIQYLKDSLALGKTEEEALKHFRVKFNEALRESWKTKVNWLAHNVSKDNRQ
PI3Kδ, sequence (P27986 whole entry partner, species assumed): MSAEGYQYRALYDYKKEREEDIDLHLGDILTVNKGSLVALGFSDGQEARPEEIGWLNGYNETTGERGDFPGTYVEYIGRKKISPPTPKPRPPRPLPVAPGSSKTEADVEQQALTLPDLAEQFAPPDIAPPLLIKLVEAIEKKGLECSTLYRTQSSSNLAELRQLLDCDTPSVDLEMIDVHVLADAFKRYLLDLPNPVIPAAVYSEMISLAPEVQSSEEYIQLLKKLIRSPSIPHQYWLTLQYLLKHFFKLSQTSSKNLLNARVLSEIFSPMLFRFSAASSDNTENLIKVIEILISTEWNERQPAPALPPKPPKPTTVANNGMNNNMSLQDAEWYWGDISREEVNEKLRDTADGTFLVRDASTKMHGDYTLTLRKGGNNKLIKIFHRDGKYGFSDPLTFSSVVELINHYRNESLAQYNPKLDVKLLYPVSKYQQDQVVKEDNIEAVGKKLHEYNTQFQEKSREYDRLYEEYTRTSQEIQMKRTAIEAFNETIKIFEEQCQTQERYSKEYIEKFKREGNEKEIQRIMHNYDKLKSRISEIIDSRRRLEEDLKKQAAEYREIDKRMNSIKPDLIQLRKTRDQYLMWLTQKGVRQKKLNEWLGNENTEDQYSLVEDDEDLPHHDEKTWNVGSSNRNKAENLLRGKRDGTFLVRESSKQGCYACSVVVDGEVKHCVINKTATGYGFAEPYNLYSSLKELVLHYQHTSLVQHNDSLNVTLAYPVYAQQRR
Tyro3, sequence (Q06418 41-890): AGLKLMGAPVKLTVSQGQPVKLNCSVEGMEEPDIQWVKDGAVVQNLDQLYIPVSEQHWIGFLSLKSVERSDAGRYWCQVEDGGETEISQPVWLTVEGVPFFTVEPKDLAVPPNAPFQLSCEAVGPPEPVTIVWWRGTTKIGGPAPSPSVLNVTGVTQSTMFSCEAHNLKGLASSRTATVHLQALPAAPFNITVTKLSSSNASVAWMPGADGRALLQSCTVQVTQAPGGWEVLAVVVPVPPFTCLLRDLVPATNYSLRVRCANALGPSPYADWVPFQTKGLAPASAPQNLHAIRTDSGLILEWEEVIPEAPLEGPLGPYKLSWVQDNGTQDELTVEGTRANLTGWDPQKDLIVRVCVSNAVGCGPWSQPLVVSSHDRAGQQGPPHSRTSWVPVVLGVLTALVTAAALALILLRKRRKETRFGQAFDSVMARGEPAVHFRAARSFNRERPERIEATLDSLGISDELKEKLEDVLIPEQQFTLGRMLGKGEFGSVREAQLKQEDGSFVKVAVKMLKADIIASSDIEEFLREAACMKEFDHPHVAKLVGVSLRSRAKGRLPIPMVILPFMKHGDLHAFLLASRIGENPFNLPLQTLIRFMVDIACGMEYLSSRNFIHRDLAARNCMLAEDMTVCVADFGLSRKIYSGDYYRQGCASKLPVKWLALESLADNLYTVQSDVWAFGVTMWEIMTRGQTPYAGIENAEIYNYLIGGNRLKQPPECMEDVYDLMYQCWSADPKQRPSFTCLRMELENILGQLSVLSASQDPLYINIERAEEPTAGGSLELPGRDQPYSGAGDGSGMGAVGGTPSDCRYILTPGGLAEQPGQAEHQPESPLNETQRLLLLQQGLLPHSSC
phosphor-Axl, sequence (P30530 26-894): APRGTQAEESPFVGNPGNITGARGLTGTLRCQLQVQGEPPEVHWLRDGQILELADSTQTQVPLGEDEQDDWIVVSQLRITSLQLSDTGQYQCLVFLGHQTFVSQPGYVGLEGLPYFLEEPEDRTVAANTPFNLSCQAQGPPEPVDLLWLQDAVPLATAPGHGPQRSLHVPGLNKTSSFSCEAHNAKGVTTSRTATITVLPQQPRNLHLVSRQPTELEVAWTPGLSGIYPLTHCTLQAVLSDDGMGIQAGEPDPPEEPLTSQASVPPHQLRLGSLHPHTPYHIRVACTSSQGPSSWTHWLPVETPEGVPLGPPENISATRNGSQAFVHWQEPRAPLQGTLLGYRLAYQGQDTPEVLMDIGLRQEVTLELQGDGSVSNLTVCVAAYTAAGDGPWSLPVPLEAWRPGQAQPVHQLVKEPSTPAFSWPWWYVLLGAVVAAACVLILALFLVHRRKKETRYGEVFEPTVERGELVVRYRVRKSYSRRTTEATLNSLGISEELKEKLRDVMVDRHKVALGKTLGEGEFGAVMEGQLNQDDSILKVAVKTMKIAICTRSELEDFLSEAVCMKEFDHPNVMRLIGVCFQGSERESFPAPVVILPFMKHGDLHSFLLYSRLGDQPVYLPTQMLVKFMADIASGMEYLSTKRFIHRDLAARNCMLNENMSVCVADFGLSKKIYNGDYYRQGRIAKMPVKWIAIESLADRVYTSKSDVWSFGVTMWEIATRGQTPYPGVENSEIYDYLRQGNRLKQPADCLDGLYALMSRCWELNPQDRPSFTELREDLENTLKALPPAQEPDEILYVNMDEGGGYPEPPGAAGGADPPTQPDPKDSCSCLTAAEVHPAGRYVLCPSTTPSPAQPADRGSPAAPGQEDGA
Method for Tyro3: The kinase assay buffer contained 50 mM HEPES, pH7.5, 10 mM MgCl2, 1 mM EGTA, 0.01% NP-40 and 2 mM DTT. 0.1 ul test compounds dissolved in DMSO were transferred from compound plates to white 384-well assay plates (Greiner [sequence] plates). […] 4 ul enzyme solution (or assay buffer for the enzyme blank) was added to the appropriate wells in each plate, and then 4 ul/well substrate solution was added to initiate the reaction. The plate was protected from light and incubated at room temperature for 60 min. […] The plate was incubated for 1 h at room temperature, and HTRF (homogenous time resolved fluorescence) signal was measured on a PHERAstar FS plate reader (BMG labtech). Percentage of inhibition was calculated for each concentration and IC50 value was generated from curve fitting with GraphPad Prism software.

`CCCCNc1ncc2c(-c3ccc(N4CCOCC4)c(F)c3)nc(C3CCC(O)CC3)n2n1` (single isomer, unassigned) [7 (2nd peak), 4-[2-(Butylamino)-5-(3-fluoro-4-morpholin-4-ylphenyl)imidazo[5,1-f][1,2,4]triazin-7-yl]cyclohexanol]: on phosphor-Axl, the IC50 was above 1000 nM.
For the compound `CCCCNc1ncc2c(-c3ccc(N4CCOCC4)c(F)c3)nc(C3CCC(O)CC3)n2n1` (single isomer, unassigned) [7 (1st peak), 4-[2-(Butylamino)-5-(3-fluoro-4-morpholin-4-ylphenyl)imidazo[5,1-f][1,2,4]triazin-7-yl]cyclohexanol], the IC50 against Tyro3 fell in the range of 500 to 1000 nM; at phosphor-Axl it was 100 to 500 nM.
`CCOc1c(C(C)n2nc(C)c3c(N)ncnc32)cc(Cl)c(F)c1C1CNC(=O)C1` (single isomer, unassigned) [Compound 32c, 4-{3-[1-(4-amino-3-methyl-1H-pyrazolo[3,4-d]pyrimidin-1-yl)ethyl]-5-chloro-2-ethoxy-6-fluorophenyl}pyrrolidin-2-one]: the IC50 on PI3Kδ is below 50 nM.
`CCCCNc1ncc2c(-c3ccc(CN4CCOCC4)cc3)nc([C@H]3CC[C@@H](O)CC3)n2n1` [2 (2nd peak, cis-), cis-4-{2-(Butylamino)-5-[4-(morpholin-4-ylmethyl)phenyl]imidazo[5,1-f][1,2,4]triazin-7-yl}cyclohexanol]: the IC50 at Tyro3 was 100 to 500 nM; at phosphor-Axl it was 100 to 500 nM; at c-Mer, at most 100 nM.
`COc1c(C(C)n2nc(C)c3c(N)ncnc32)cc(Cl)c(C#N)c1C1CN(CCO)C1` (stereo not drawn) [Compound 30, 4-[1-(4-amino-3-methyl-1H-pyrazolo[3,4-d]pyrimidin-1-yl)ethyl]-6-chloro-2-[1-(2-hydroxyethyl)azetidin-3-yl]-3-methoxybenzonitrile]: the IC50 at PI3Kδ was below 50 nM.
For the compound `COc1c(C(C)n2nc(C)c3c(N)ncnc32)cc(Cl)c(C#N)c1C1CN(C[C@H](C)O)C1` (stereo partly drawn) [Compound 29, 4-[1-(4-amino-3-methyl-1H-pyrazolo[3,4-d]pyrimidin-1-yl)ethyl]-6-chloro-2-{1-[(2S)-2-hydroxypropyl]azetidin-3-yl}-3-methoxybenzonitrile], the IC50 on PI3Kδ was below 50 nM.
Turning to `CCCCNc1ncc2c(-c3ccc(CN4CCN(C)CC4)cc3)nc([C@H]3CC[C@H](O)CC3)n2n1` [1 (1st peak, trans-), trans-4-(2-(Butylamino)-5-{4-[(4-methylpiperazin-1-yl)methyl]phenyl}imidazo[5,1-f][1,2,4]triazin-7-yl)cyclohexanol], the IC50 was 100 to 500 nM on Tyro3, at most 100 nM on phosphor-Axl and at most 100 nM at c-Mer.
